# From PMC10999543, “Identification of kinase modulators as host-directed therapeutics against intracellular methicillin-resistant Staphylococcus aureus” (Frontiers in Cellular and Infection Microbiology, 2024)
# Where two headings read alike, the source gives them in different places.
# How the values were obtained:
# [1] = system: intracellular MRSA in HeLa cells; experiment: Gentamicin protection assay with CFU count in MRSA-infected HeLa cells; assay type: cell-based, Staphylococcus aureus; details: for effect on intracellular MRSA burden: 991 used at 25 μM, rapamycin at 1 μM, Figure 5J; for CFU (% of DMSO) at 10 µM: MRSA-infected HeLa cells
# Description: The cells were resuspended in cell culture medium without antibiotics, seeded with 10,000 cells/well into Costar flat-bottom 96-well plates (Corning, Amsterdam, the Netherlands), and were incubated overnight at 37°C/5% CO2. The next day, the bacteria were centrifuged at ≥1800 g for 15 min and resuspended in cold PBS + 5 mM ethylenediaminetetraacetic acid (EDTA). The number of CFUs present in the bacterial suspension was estimated from the optical density at 600 nm (OD600) by assuming 8x10^8 CFUs to be present in a bacterial suspension with OD600 = 1, based on prior titrations. The bacterial suspension was diluted in cell culture medium without antibiotics and added to the cells. Accuracy of the multiplicity of infection (MOI) was validated by plating serial dilutions of the MRSA inoculums on Difco TS agar plates (BD Biosciences). The calculated mean MOI throughout all experiments was 6.8 ± 4.6 (mean ± SD). Infected cells were centrifuged for 3 min at 150 g and incubated for 1 hour at 37°C/5% CO2. Next, the cells were incubated with fresh cell culture medium supplemented with 30 µg/ml gentamicin sulphate (Lonza BioWhittaker, Basel, Switzerland) for 15 min at 37°C/5% CO2 to kill residual extracellular bacteria. Infected cells were incubated overnight at 37°C/5% CO2 in cell culture medium in the presence of kinase inhibitors and 5 µg/ml gentamicin sulphate-containing medium to prevent the growth of extracellular bacteria. The solvent of the compounds, DMSO, was used at equal % v/v as a negative control. For the screen, each compound was tested in triplicate, on separate cell culture plates, resulting in triplicate values for each kinase inhibitor.
# Infected cells were lysed in sterile water + 0.05% UltraPure SDS solution (Invitrogen, ThermoFisher Scientific) to release intracellular bacteria. Bacterial suspensions and lysates of cells infected with MRSA were 5-fold serially diluted and 10-μl drops were plated on square TS agar plates. The plates were left to dry and incubated overnight at 37°C/5% CO2.
# [2] = system: planktonic MRSA cultures; experiment: Bacterial growth assay in cell-free planktonic MRSA cultures (OD600); assay type: cell-based, Staphylococcus aureus; details: for direct antibiotic effects against MRSA: planktonic cultures, Supplementary Figure S5
# Description: […] The absorbance was measured using an EnVision plate reader (PerkinElmer). The plates were incubated at 37°C overnight and the absorbance was measured again the next day. Real-time measurement of bioluminescence by the MRSA-lux strain was performed in a white flat-bottom 96-wells plate using a SpectraMax i3x plate reader and an integration time set at 9000 ms.
# [3] = system: intracellular MRSA; assay type: cell-based, Staphylococcus aureus; details: for %GFP+ rep 1 / z-scoreMRSA+ rep 1: replicate 1; for %GFP+ rep 2 / z-scoreMRSA+ rep 2: replicate 2; for %GFP+ rep 3 / z-scoreMRSA+ rep 3: replicate 3; for z-scoreMRSA+ mean: mean of 3 replicates
# Procedure, shortened: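 HeLa cells infected with GFP-MRSA (MOI ~6.8), gentamicin-cleared, then incubated overnight at 37°C with inhibitors plus 5 µg/ml gentamicin; DMSO as negative control, triplicates. Flow cytometry gave % GFP-positive cells and cell count (viability surrogate); hits by plate z-score (MRSA ≤ -2, HeLa count ≥ -3).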
# [4] = system: HeLa cells; experiment: Compound screen by flow cytometry: HeLa cell count as surrogate readout of cell viability (z-scoreHeLa); assay type: cell-based, human; details: for cell count rep 1 / z-scoreHeLa rep 1: replicate 1; for cell count rep 2 / z-scoreHeLa rep 2: replicate 2; for cell count rep 3 / z-scoreHeLa rep 3: replicate 3; for z-scoreHeLa mean: mean of 3 replicates
# Procedure, shortened: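 HeLa cells were infected with GFP-MRSA (mean MOI 6.8 ± 4.6) for 1 h, and extracellular bacteria were killed with 30 µg/ml gentamicin. Cells were then incubated overnight with kinase inhibitors in 5 µg/ml gentamicin, in triplicate against DMSO controls. Flow-cytometric cell count served as a viability surrogate, expressed as a plate z-score.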
# [5] = system: EGFR; design: method as in Elkins et al., 2016; details: PKIS1, Caliper assay, ref Elkins et al., 2016; cited from earlier work
# [6] = system: HER2; design: method as in Elkins et al., 2016; details: PKIS1, Caliper assay, ref Elkins et al., 2016; cited from earlier work
# [7] = system: HER4; design: method as in Elkins et al., 2016; details: PKIS1, Caliper assay, ref Elkins et al., 2016; cited from earlier work
# [8] = system: HER2; design: method as in Drewry et al., 2017; details: PKIS2, KinomeScan, ref Drewry et al., 2017; cited from earlier work
# [9] = system: HER4; design: method as in Drewry et al., 2017; details: PKIS2, KinomeScan, ref Drewry et al., 2017; cited from earlier work
# [10] = PKIS compounds raw data, MRSA-infected HeLa cells
# [11] = Yes/No: effect without cell death
# [12] = compound screen, MRSA-infected HeLa cells
# [13] = PKIS compounds raw data, HeLa cell count
# [14] = compound screen, HeLa cell count
# [15] = PKIS compound screen, Yes/No call
# [16] = PKIS compound screen, Yes/No call (effect without cell death)
# [17] = PKIS compound screen raw data, MRSA-infected HeLa cells
# [18] = PKIS compound screen, MRSA-infected HeLa cells
# [19] = PKIS compound screen raw data, HeLa cell count
# [20] = PKIS compound screen, HeLa cell count
smiles,measurement,setting,value
"Cc1ccc(Oc2nc3cc(-c4ccc5c(ccn5C)c4)c(Cl)cc3[nH]2)cc1C(=O)O [Compound 991, reference compound]",effect on intracellular MRSA burden,[1]; HeLa cells,able to reduce the intracellular MRSA burden similar to GW296115X
same,direct antibiotic effects against MRSA,[2],shows direct antibiotic effects
CS(=O)(=O)CCNCc1ccc(-c2ccc3ncnc(Nc4ccc(OCc5ccccc5)c(Br)c4)c3c2)o1 [GW580496A],%GFP+ rep 1,[3]; [10],5.4%
same,%GFP+ rep 2,[3]; [10],6.0%
same,%GFP+ rep 3,[3]; [10],5.1%
same,effect,[3]; Yes/No call from z-scoreMRSA+,Yes
same,hit,[3]; [11],Yes
same,z-scoreMRSA+ mean,[3]; [12],-2.73
same,z-scoreMRSA+ rep 1,[3]; [12],-2.50
same,z-scoreMRSA+ rep 2,[3]; [12],-2.51
same,z-scoreMRSA+ rep 3,[3]; [12],-3.18
same,cell count rep 1,[4]; [13],5658
same,cell count rep 2,[4]; [13],6483
same,cell count rep 3,[4]; [13],11366
same,cell death,[4]; Yes/No call from z-scoreHeLa,No
same,z-scoreHeLa mean,[4]; [14],1.53
same,z-scoreHeLa rep 1,[4]; [14],0.80
same,z-scoreHeLa rep 2,[4]; [14],1.67
same,z-scoreHeLa rep 3,[4]; [14],2.11
same,CFU (% of DMSO) at 10 µM,[1],65.3 % of DMSO
same,% inhibition at 1 µM EGFR,[5],82%
same,% inhibition at 1 µM HER2,[6],74%
same,% inhibition at 1 µM HER4,[7],80%
CS(=O)(=O)CCNCc1nc(-c2ccc3ncnc(Nc4ccc(OCc5ccccc5)c(Cl)c4)c3c2)cs1 [GW582764],% inhibition at 1 µM HER2,[8],100%
same,% inhibition at 1 µM HER4,[9],97.8%
CS(=O)(=O)CCN(CC#N)Cc1ccc(-c2ccc3ncnc(Nc4ccc(OCc5cccc(F)c5)c(Cl)c4)c3c2)o1 [GW616030X],%GFP+ rep 1,[3]; [10],7.5%
same,%GFP+ rep 2,[3]; [10],7.4%
same,%GFP+ rep 3,[3]; [10],6.2%
same,effect,[3]; Yes/No call from z-scoreMRSA+,Yes
same,hit,[3]; [11],Yes
same,z-scoreMRSA+ mean,[3]; [12],-2.24
same,z-scoreMRSA+ rep 1,[3]; [12],-1.82
same,z-scoreMRSA+ rep 2,[3]; [12],-2.03
same,z-scoreMRSA+ rep 3,[3]; [12],-2.88
same,cell count rep 1,[4]; [13],2826
same,cell count rep 2,[4]; [13],3932
same,cell count rep 3,[4]; [13],5918
same,cell death,[4]; Yes/No call from z-scoreHeLa,No
same,z-scoreHeLa mean,[4]; [14],-0.84
same,z-scoreHeLa rep 1,[4]; [14],-1.76
same,z-scoreHeLa rep 2,[4]; [14],-0.25
same,z-scoreHeLa rep 3,[4]; [14],-0.50
same,CFU (% of DMSO) at 10 µM,[1],50.3 % of DMSO
same,% inhibition at 1 µM EGFR,[5],77%
same,% inhibition at 1 µM HER2,[6],67%
same,% inhibition at 1 µM HER4,[7],74%
CCCN(CCS(C)(=O)=O)Cc1ccc(-c2ccc3ncnc(Nc4ccc(OCc5cccc(F)c5)c(Cl)c4)c3c2)o1 [GW621823A],effect,[3]; [15],Yes
same,hit,[3]; [16],Yes
same,z-scoreMRSA+ mean,[3]; PKIS compound screen,-2.21
same,z-scoreMRSA+ rep 1,[3]; PKIS compound screen,-2.10
same,z-scoreMRSA+ rep 2,[3]; PKIS compound screen,-1.86
same,z-scoreMRSA+ rep 3,[3]; PKIS compound screen,-2.67
same,%GFP+ rep 1,[3]; [10],6.6%
same,%GFP+ rep 2,[3]; [10],7.9%
same,%GFP+ rep 3,[3]; [10],6.9%
same,cell death,[4]; [15],No
same,z-scoreHeLa mean,[4]; PKIS compound screen,0.59
same,z-scoreHeLa rep 1,[4]; PKIS compound screen,0.17
same,z-scoreHeLa rep 2,[4]; PKIS compound screen,0.58
same,z-scoreHeLa rep 3,[4]; PKIS compound screen,1.02
same,cell count rep 1,[4]; [13],4961
same,cell count rep 2,[4]; [13],5042
same,cell count rep 3,[4]; [13],9090
same,CFU (% of DMSO) at 10 µM,[1],68.4 % of DMSO
same,% inhibition at 1 µM EGFR,[5],78%
same,% inhibition at 1 µM HER2,[6],82%
same,% inhibition at 1 µM HER4,[7],79%
NC(=O)c1cccc(Nc2nccc(Nc3ccc(Oc4cccc(Cl)c4)c(Cl)c3)n2)c1 [GW659008A],%GFP+ rep 1,[3]; [17],9.2%
same,%GFP+ rep 2,[3]; [17],10.5%
same,%GFP+ rep 3,[3]; [17],10.3%
same,z-scoreMRSA+ mean,[3]; [18],-2.69
same,z-scoreMRSA+ rep 1,[3]; [18],-2.76
same,z-scoreMRSA+ rep 2,[3]; [18],-2.41
same,z-scoreMRSA+ rep 3,[3]; [18],-2.89
same,hit,[3]; [16],Yes
same,effect,"[3]; PKIS compound screen, Yes/No call on z-scoreMRSA+",Yes
same,cell count rep 1,[4]; [19],25296
same,cell count rep 2,[4]; [19],38684
same,cell count rep 3,[4]; [19],42387
same,z-scoreHeLa mean,[4]; [20],0.60
same,z-scoreHeLa rep 1,[4]; [20],0.78
same,z-scoreHeLa rep 2,[4]; [20],0.73
same,z-scoreHeLa rep 3,[4]; [20],0.30
same,cell death,"[4]; PKIS compound screen, Yes/No call on z-scoreHeLa",No
same,inhibition at 10 µM,"[2]; Staphylococcus aureus, MRSA, read-out: inhibition of planktonic MRSA growth",67.3%
"CO/C1=C\C(C)=C\[C@@H](C)[C@@H](O)[C@@H](C)C/C(C)=C/C=C/[C@H](OC)[C@@H]([C@@H](C)[C@@H](O)[C@H](C)[C@@]2(O)C[C@@H](O)[C@H](C)[C@@H](C(C)C)O2)OC1=O [bafilomycin A1, reference compound]",reduction in the intracellular bacterial burden,"[1]; HeLa cells, bafilomycin A1 alone (used at 100 nM)",70%
same,direct antibiotic effects against MRSA,[2],not the case
"CO[C@H]1C[C@@H]2CC[C@@H](C)[C@@](O)(O2)C(=O)C(=O)N2CCCC[C@H]2C(=O)O[C@H]([C@H](C)C[C@@H]2CC[C@@H](O)[C@H](OC)C2)CC(=O)[C@H](C)/C=C(\C)[C@@H](O)[C@@H](OC)C(=O)[C@H](C)C[C@H](C)/C=C/C=C/C=C/1C [rapamycin, reference compound]",effect on intracellular MRSA burden,[1]; HeLa cells,able to reduce the intracellular MRSA burden similar to GW296115X
same,direct antibiotic effects against MRSA,[2],not the case
